This is an account of results in ChEMBL document CHEMBL4118189, “Discovery of novel N-hydroxy-2-arylisoindoline-4-carboxamides as potent and selective inhibitors of HDAC11” (Bioorg Med Chem Lett, 2018).

Values after ≈ are worked out from the molar mass of the structure shown.

Data set [1] can be described thus: Intrinsic clearance in mouse liver microsomes. Particulars: read-out: CLH. The class given is ADME, microsome.
The next data set deals with Histone deacetylase 5 (Homo sapiens, UniProt Q9UQL6). The data set can be described thus: Inhibition of full length recombinant human HDAC5 using fluorescent-labeled peptide as substrate by electrophoretic mobility shift assay.
Another data set deals with Histone deacetylase 3 (Homo sapiens, UniProt O15379). The data set can be described thus: Inhibition of full length recombinant human HDAC3 using fluorescent-labeled peptide as substrate by electrophoretic mobility shift assay.
Data set [2] is described as follows: Kinetic solubility of the compound at pH 7.4. The note with it: buffer, read-out: Kinetic_solubility. It counts as physicochemical.
In a further data set the target is T1, Histone deacetylase 7 (Homo sapiens, UniProt Q8WUI4).
T1 sequence (Q8WUI4 whole entry): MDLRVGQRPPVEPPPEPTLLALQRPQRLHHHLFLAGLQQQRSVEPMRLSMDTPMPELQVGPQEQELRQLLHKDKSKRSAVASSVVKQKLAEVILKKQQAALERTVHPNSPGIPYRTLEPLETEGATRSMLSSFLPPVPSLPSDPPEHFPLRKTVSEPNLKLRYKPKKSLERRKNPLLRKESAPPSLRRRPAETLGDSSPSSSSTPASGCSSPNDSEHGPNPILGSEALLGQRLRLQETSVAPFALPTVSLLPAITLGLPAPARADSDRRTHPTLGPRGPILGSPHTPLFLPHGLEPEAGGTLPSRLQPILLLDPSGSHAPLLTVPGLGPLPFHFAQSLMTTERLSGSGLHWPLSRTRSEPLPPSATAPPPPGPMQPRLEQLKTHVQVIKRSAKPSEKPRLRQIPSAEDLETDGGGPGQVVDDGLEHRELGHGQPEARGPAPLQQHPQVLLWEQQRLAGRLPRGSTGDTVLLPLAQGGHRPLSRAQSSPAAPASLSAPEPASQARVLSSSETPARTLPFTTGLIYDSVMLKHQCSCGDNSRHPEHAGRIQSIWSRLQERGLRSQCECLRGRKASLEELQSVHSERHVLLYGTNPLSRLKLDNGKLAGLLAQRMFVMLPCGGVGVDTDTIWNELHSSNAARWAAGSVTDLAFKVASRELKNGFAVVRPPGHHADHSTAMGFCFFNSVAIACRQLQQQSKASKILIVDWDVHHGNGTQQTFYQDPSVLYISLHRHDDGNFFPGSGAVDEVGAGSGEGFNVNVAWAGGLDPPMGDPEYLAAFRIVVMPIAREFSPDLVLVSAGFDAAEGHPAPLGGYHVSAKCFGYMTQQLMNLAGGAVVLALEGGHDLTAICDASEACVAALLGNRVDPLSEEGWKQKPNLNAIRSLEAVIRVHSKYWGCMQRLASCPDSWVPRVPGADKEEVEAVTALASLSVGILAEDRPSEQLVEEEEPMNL
The experiment in a line: Inhibition of full length recombinant human HDAC7 using fluorescent-labeled peptide as substrate by electrophoretic mobility shift assay.

Data set [3] deals with T2, Protein deacetylase HDAC6 (Homo sapiens, UniProt Q9UBN7).
T2 sequence (Q9UBN7 whole entry): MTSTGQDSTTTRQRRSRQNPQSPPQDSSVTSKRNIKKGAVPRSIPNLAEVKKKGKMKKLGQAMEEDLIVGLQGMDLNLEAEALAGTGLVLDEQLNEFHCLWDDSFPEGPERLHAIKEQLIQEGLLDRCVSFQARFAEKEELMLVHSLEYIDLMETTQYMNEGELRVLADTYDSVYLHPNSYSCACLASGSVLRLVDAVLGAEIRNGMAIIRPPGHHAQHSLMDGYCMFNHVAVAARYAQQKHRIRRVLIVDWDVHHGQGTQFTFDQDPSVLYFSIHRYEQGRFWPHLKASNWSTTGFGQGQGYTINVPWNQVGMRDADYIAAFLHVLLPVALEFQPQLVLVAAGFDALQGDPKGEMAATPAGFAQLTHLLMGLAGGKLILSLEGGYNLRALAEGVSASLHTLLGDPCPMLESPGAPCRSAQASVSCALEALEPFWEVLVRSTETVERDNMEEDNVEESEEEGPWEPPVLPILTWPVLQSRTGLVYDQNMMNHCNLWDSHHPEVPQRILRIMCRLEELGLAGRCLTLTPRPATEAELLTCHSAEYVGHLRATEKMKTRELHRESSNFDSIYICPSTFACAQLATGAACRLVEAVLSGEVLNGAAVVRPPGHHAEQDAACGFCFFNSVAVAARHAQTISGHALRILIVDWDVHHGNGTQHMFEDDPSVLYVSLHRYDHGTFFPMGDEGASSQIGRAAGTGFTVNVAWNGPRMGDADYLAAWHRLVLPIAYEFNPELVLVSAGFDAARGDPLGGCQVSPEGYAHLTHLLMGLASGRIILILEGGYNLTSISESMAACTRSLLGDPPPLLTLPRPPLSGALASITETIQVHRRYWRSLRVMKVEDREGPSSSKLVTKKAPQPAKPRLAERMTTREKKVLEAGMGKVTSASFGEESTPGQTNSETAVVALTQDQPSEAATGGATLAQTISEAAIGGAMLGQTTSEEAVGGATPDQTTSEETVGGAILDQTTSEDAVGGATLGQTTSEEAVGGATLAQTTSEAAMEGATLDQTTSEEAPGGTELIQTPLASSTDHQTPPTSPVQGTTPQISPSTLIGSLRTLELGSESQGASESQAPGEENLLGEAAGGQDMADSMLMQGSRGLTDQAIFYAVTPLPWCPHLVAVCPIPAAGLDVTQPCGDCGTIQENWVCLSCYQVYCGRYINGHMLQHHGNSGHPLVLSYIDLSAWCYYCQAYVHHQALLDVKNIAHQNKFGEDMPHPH
The data set can be described thus: Inhibition of full length recombinant human HDAC6 using fluorescent-labeled peptide as substrate by electrophoretic mobility shift assay.

Chain of Histone deacetylase 5 (Q9UQL6 whole entry): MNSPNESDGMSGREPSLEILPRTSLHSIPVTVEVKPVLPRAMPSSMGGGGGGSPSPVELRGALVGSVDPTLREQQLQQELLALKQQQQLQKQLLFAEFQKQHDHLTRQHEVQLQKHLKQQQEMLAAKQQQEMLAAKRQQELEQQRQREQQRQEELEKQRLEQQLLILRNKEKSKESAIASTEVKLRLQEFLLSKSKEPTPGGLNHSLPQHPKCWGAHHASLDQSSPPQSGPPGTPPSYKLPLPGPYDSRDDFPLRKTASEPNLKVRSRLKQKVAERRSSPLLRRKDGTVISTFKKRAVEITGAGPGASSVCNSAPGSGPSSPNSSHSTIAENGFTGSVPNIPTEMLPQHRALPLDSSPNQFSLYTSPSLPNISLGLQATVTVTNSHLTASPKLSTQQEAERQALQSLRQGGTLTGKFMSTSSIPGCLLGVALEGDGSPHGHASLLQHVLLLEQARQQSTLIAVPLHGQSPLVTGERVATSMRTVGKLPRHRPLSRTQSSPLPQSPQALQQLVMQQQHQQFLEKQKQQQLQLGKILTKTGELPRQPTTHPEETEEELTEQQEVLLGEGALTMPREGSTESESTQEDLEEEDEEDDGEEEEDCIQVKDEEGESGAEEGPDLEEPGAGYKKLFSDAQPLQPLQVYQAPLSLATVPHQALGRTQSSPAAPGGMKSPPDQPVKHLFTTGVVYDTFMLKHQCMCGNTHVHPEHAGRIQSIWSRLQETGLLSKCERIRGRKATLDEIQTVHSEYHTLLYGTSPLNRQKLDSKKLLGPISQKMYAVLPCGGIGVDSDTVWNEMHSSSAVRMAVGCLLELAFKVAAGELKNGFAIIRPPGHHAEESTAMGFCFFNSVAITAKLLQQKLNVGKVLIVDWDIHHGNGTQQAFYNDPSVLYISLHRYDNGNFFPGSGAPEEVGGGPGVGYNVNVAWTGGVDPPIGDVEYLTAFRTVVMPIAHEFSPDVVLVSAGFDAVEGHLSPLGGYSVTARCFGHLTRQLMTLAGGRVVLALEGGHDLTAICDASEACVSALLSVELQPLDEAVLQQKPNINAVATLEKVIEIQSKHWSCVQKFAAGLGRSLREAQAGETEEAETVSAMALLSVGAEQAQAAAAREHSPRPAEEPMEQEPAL
Chain of Histone deacetylase 3 (O15379 whole entry): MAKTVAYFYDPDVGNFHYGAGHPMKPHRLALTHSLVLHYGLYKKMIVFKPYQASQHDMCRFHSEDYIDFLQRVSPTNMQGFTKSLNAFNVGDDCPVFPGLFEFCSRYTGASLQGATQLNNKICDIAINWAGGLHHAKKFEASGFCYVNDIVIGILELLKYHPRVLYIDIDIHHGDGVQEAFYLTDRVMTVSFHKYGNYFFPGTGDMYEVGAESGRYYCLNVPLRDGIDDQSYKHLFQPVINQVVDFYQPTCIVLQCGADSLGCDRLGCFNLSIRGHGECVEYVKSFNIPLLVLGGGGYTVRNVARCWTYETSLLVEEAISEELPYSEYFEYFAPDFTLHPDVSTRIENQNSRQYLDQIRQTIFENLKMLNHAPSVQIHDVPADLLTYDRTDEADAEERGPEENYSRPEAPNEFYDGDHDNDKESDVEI

On to `CC1(C)c2cccc(C(N)=O)c2CN1c1cnc(C(F)(F)F)cn1`, for which the microsomal CLint in data set [1] was 7 µL/min/mg. The IC50 (on Histone deacetylase 5; on Histone deacetylase 3; on Histone deacetylase 7; in data set [3]) was greater than 10 µM throughout. For the same compound, the solubility kinetic in data set [2] worked out at 0.3 µM (≈ 0.101 µg/mL).
